Test results published in US9534035B2, “Cell lines expressing ENaC and methods using them” (priority 2008, dated 2017).
Entries after “also recorded” stand apart in the source; their conditions may differ. Where two headings read alike, the source gives them in different places.

How the values were obtained:
Format in all cases: cell-based
ENaC = target: T1, ENaC (Homo sapiens, UniProt P37088+P51168+P51170, A314G); assay: membrane potential assay with stable ENaC cell line (CHO)
T1 construct: expressed in transfected cells
T1 sequence (P37088 1-669): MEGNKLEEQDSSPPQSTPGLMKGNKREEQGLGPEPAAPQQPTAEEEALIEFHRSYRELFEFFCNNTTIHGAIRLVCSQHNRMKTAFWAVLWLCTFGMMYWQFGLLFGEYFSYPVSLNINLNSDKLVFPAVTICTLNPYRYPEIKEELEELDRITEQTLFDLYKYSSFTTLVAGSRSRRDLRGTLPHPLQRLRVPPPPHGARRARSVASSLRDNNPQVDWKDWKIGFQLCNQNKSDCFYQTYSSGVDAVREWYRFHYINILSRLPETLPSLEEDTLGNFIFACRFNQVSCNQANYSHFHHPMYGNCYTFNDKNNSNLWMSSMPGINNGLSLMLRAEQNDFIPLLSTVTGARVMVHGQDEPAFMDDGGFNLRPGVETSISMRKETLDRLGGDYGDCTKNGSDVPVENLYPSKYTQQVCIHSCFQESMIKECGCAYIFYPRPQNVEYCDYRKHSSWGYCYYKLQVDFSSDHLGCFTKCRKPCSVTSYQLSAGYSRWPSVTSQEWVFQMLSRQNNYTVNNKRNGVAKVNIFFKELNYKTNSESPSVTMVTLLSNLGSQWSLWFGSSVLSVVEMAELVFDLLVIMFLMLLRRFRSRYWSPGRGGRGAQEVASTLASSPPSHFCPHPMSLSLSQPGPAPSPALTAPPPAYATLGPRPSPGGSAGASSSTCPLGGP
T1 sequence (P51168 1-640 A314G): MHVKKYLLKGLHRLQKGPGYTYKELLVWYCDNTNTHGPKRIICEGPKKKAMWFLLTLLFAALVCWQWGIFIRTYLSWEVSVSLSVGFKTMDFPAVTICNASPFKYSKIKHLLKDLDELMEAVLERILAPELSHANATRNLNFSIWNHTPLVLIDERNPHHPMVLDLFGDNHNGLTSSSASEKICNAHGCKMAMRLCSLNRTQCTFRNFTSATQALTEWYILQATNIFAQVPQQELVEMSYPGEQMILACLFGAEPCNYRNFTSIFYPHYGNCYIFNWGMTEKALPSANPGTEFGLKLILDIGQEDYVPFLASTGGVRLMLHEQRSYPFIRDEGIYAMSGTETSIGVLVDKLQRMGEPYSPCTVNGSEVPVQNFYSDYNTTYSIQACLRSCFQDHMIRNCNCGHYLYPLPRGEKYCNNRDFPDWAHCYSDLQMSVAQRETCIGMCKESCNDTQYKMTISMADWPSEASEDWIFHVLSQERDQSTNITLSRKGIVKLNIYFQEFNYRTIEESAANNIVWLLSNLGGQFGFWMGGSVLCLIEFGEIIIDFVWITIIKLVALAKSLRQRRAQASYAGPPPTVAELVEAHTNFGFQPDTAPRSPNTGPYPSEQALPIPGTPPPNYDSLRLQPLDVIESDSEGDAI
T1 sequence (P51170 1-649): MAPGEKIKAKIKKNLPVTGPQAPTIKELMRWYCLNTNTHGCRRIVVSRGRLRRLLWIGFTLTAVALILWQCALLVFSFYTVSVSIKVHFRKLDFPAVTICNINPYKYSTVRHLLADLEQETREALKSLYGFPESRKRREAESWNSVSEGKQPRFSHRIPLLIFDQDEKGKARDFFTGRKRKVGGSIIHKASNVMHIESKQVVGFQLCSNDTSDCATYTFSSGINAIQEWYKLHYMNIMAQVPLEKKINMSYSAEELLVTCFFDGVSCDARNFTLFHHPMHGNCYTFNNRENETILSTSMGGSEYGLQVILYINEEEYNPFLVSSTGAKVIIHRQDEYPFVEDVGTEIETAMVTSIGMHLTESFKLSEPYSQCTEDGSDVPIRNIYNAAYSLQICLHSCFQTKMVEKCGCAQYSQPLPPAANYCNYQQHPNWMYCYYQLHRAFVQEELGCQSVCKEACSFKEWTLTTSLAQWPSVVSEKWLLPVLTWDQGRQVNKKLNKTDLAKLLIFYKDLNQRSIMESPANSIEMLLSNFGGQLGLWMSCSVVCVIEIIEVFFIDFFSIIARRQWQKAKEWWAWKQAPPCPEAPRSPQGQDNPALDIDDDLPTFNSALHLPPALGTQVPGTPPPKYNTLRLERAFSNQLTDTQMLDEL
Experimental: The influx of positively-charged sodium ions following the activation of ENaC results in a change in the membrane potential of the cell. To test the activity of ENaC cell lines, we used a membrane potential assay. Such assays are well known in the art. […] Rev. Biophys. […]
The assay plates were maintained in a 37° C. cell culture incubator under 5% CO2 for 19-21 hours. The media was then removed from the assay plates and 20 μl blue membrane potential dye (Molecular Devices Inc) was added and the cells were incubated for 1 hr at room temperature. Test compounds were solubilized in dimethylsulfoxide, diluted in a phosphate buffer and loaded into 384 well polypropylene micro-titer plates. The cell and compound plates were loaded into an FDSS instrument (Hamamatsu) which measures fluorescence (relative fluorescence units) from the plates over time. Fluorescence values were continuously collected from the beginning of the experiment and following addition of test compounds to report baseline values and any changes due to the addition of test compounds. Test compounds in assay buffer or assay buffer alone were then added to the cells and flluorescence values were collected for two minutes.

[1] = test system: proteolytically cleaved ENaC isoforms; assay: dose response of inhibitors across trypsin concentrations, membrane potential FDSS protocol; details: FIG. 9, trypsin 0 to 2.25 mg/ml, IC50 plotted against protease concentration
Experimental: We also tested the ability of novel ENaC inhibitors (identified in Example 4) to inhibit proteolytically cleaved ENaC. […] The cells were loaded with membrane potential dye concurrently with the trypsin. […] values were calculated and plotted as a function of protease concentration. […] The different isoforms of ENaC can be pursed in drug discovery to more effectively address the role of the different isoforms of ENaC or the effect or role of proteolysis in disease.

proteolyzed ENaC Form 24 = assay: membrane potential assay, trypsin-treated ENaC cells; details: FIG. 8 dose response
Experimental: After a 1 hour incubation with a dye-protease solution at room temperature, the assay was run using the FDSS (Hamamatsu Corporation) as described above.
The experiment was performed using several treatment groups, each receiving a different concentration of trypsin (0 to 3 mg/ml). The cells were incubated with the trypsin for 1 hour at room temperature concurrently with membrane potential dye (standard protocol). […] We further characterized these proteolytically modified isoforms for their ability to conduct sodium.
The isoform specific assay described above was performed with MBP dye solution with trypsin concentrations as listed (Table 2).

[2] = ENaC cell line maintained in 90 mM sodium media, read-out: EC50 (approx)
[3] = ENaC cell line maintained in 150 mM sodium media, read-out: EC50 (approx)
[4] = a cell line of the invention, general statement, read-out: EC50

Compound	EC50 (ENaC; [2])	EC50 (ENaC; [3])	EC50 (ENaC; FIG. 4, read-out: EC50)	EC50 (ENaC; [4])	inhibition of proteolytically cleaved ENaC isoforms [1]	block of the sodium response (ENaC)	inhibition of uncleaved (non-proteolyzed) ENaC (ENaC)	inhibition of cleaved ENaC form 24 (proteolyzed ENaC Form 24)
[Cl-].[Na+] [NaCl, sodium chloride]	~48 mM	~80 mM	48 mM	~50 mM				
N=C(N)NC(=O)c1nc(Cl)c(N)nc1N [Amiloride, amiloride]					inhibit a unique subset of ENaC isoforms	essentially all of the sodium response was blocked	effectively inhibits; also recorded: almost completely inhibit	much less effective or not effective; also recorded: not effective to inhibit Form 24
[Cl-].[Li+] [LiCl, lithium chloride]	~33 mM	~82 mM		~35 mM				
